{"source": "paper PMC8844914", "about": "“Structural Basis for the Peptidoglycan-Editing Activity of YfiH” (mBio, 2022)", "key": {"MurC": {"biological_target": "T1, MurC (Escherichia coli, UniProt P17952)", "T1 construct": "C-terminal 6xHis tag (pET21a), expressed in E. coli BL21(DE3)", "assay": "ligase reaction, product UDP-MurNAc-Gly by mass spectrometry", "format": "biochemical", "conditions": "18 mM Gly, 1 mM UDP-MurNAc, 5 mM ATP, 20 uM MurC, 24 h; low yield"}, "YfiH (PgeF) [1]": {"biological_target": "T2, YfiH (PgeF) (Escherichia coli, UniProt P33644, C107A)", "T2 construct": "full length, C-terminal 6xHis tag (pET21a), expressed in E. coli BL21(DE3); Met1 not seen in crystal", "T2 sequence (P33644 whole entry C107A)": "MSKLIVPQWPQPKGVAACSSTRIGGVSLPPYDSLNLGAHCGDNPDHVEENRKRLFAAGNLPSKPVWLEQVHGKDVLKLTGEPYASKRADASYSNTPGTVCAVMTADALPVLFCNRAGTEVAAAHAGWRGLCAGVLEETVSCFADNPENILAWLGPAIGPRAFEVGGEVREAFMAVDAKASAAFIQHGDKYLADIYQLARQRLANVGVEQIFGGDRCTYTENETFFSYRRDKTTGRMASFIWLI", "assay": "X-ray crystal structure, […] A", "format": "binding", "conditions": "endogenous ligand copurified from E. coli; pH 5.4; active-site groove"}, "MurD": {"biological_target": "T3, MurD (Escherichia coli, UniProt P14900)", "T3 construct": "C-terminal 6xHis tag (pET21a), expressed in E. coli BL21(DE3)", "T3 sequence (P14900 2-438)": "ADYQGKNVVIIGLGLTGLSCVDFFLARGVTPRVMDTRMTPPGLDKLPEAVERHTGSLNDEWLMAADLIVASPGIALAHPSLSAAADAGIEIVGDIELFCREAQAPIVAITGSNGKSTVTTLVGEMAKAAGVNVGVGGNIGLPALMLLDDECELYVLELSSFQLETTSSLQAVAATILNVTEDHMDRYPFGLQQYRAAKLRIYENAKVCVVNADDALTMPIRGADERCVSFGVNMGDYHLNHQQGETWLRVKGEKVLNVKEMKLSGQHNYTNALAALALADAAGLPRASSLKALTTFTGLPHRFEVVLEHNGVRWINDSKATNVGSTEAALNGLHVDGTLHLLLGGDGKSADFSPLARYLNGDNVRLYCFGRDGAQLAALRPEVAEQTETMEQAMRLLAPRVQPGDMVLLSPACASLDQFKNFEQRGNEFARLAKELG", "assay": "ligase reaction, product by HPLC and ESI-MS", "format": "biochemical", "conditions": "2 mM D-glutamate, 5 mM ATP, 10 mM MgCl2, pH 8.0, 37 C; preparative synthesis with MurC and MurD"}, "YfiH (PgeF) [2]": {"biological_target": "T2, YfiH (PgeF)", "assay": "X-ray crystal structure, […] A", "format": "binding", "conditions": "soaked into YfiH-C107A crystals; pH 5.4; active-site groove"}}}
{"smiles": "NCC(=O)O", "note": "[Gly, glycine]", "values": [{"measurement": "ligase reaction, product UDP-MurNAc-Gly by mass spectrometry", "setting": "MurC", "value": "enzymatic synthesis with MurC, using glycine as a substrate"}]}
{"smiles": "CC(=O)N[C@H]1[C@@H](OP(=O)(O)OP(=O)(O)OC[C@H]2O[C@@H](n3ccc(=O)[nH]c3=O)[C@H](O)[C@@H]2O)O[C@H](CO)[C@@H](O)[C@@H]1O[C@H](C)C(=O)O", "note": "[UM, UDP-MurNAc]", "values": [{"measurement": "X-ray crystal structure, 1.47 A", "setting": "YfiH (PgeF) [1]", "value": "This compound was unambiguously identified as UDP-MurNAc based on its high-resolution map"}]}
{"smiles": "CC(=O)N[C@H]1[C@@H](OP(=O)(O)OP(=O)(O)OC[C@H]2O[C@@H](n3ccc(=O)[nH]c3=O)[C@H](O)[C@@H]2O)O[C@H](CO)[C@@H](O)[C@@H]1O[C@H](C)C(=O)N[C@@H](C)C(=O)O", "note": "[UMA, UDP–MurNAc–L-Ala]", "values": [{"measurement": "ligase reaction, product by HPLC and ESI-MS", "setting": "MurD", "value": "we further synthesized UDP–MurNAc–L-Ala–D-Glu (UMAE)"}]}
{"smiles": "CC(=O)N[C@H]1[C@@H](OP(=O)(O)OP(=O)(O)OC[C@H]2O[C@@H](n3ccc(=O)[nH]c3=O)[C@H](O)[C@@H]2O)O[C@H](CO)[C@@H](O)[C@@H]1O[C@H](C)C(=O)N[C@@H](CO)C(=O)O", "note": "[UMS, UDP–MurNAc–L-Ser]", "values": [{"measurement": "ligase reaction, product by HPLC and ESI-MS", "setting": "MurD", "value": "UDP–MurNAc–L-Ser–D-Glu (UMSE) with recombinant MurD"}, {"measurement": "X-ray crystal structure, 1.86 A", "setting": "YfiH (PgeF) [2]", "value": "we obtained the crystals of YfiH bound to UDP–MurNAc–L-Ser"}]}
